Assay results as given in patent publication US20240116994A1, “Peptides And Use Thereof For Diagnosing And Treating Antiphospholipid Syndrome” (UNIVERSITE DE GENEVE, priority 2021, published 2024).
Where no end group is shown, it is not given here.

How the values were obtained:
[1] = system: binding of aPL to IIa-8.0-biot-2x; assay: Inhibition experiments: remaining reactivity of pre-treated aPL on IIa-8.0-biot-2x ELISA; design: species or system Human; conditions: aPL preincubated 90 min at RT with beads 15, 30 and 60 pmol
Procedure: To examine the functional ability of IIa-5.0, IIa-7.1, IIa-8.0 peptides and R39-R43 to inhibit the activity of pool of aPL isolated from APS patients, the remaining reactivity of aPL was evaluated for IIa-8.0-biot-2x which had previously been treated with increasing concentration of peptides. […] The flag-type orientation prevents potential interactions with the plate or with itself, particularly in solution. Streptavidin magnetic beads associated with IIa-5.0-biot-2x, IIa-7.1-biot-2x and Ha-8.0-biot-2x peptides have been generated. aPL was treated with increasing concentrations of beads before to measure the remaining binding activity of aPL on IIa-8.0-biot-2x ELISA (FIG. 7C).
To assess the ability of IIa-5.0-2x, IIa-7.1-2x and IIa-8.0-2x to inhibit in vitro the binding of aPL to IIa-8.0-biot-2x. aPL pool sera were preincubated for 90 min at RT with increasing concentrations (1, 10 and 10011 g/ml) of monomeric, dimeric IIa-5.0, IIa-7.1 and IIa-8.0 peptides and of IIa-5.0-biot-2x, IIa-7.1-biot-2x and IIa-8.0-biot-2x-associated beads (15, 30 and 60 pmol). 120 pmol correspond to the amount of IIa-8.0-biot-2x coated in well of Streptavidin Coated High Capacity Plates 96 well plates (Thermofisher). After the pre-incubation time, the serum was added anti-b2GP1 IgG (anti-IIa-8.0-2x) ELISA according to the protocol.

[2] = system: aPL produced by mice; assay: ELISA of IgG anti-IIa-8.0-biot-2x in serum of lupus-prone mice; format: binding; conditions: serum of apoe−/−.Nba2.Yaa mice on HCD (FIG. 3A)
Text: B6.Nba2. Yaa mice were generated as described.^8 The Apoe^−/− null mutation was introduced in B6.Nba2.Yaa mice by breeding. Eleven-week old Apoe^−/− C57B1/6 and Apoe^−/−Nba2.Yaa mice were subjected to 11 weeks of high cholesterol diet (HCD) (20.1% fat, 1.25% cholesterol, Research Diets, Inc., New Brunswick, NJ), as a model of advanced atherosclerosis. The treatments and atherosclerosis protocols were well-tolerated by the mice, and no adverse events (such as weight loss and signs of systemic toxicity) were reported. At sacrifice, haematological parameters were routinely measured. Animals were euthanized by exsanguination after anesthesia with 4% isoflurane. All breeding and experimental protocols and procedures were reviewed and approved by the Institutional Animal Care and Use Committee of the Geneva University School of Medicine.
Determination of aPL by ELISA—MaxiSorp™ 96 well plates (Nunc) or Streptavidin plate (Thermofisher) were coated with 10 μg/ml recombinant domains of β2GP1, peptides or biotinylated-peptide prior to incubation with aPLA. Secondary anti-human antibodies conjugated to IR800CW (Rockland) or HRP were used. Protein- or peptide-bound antibodies were detected and quantified by the Odyssey system (Li-Cor Biosciences) or absorbance in optical densities (OD) was determined at 405 nm (molecular Devices™ Filtermax). […]

## IIa-8.0-biot-2x: dimeric biotinylated IIa-8.0 peptide; also used associated with streptavidin magnetic beads (RSRGGMRKRKKPLTGRSRGGMRKRKKPLTG; also: dimeric peptide (two IIa-8.0 copies), biotinylated, site not given here)
[1]
  inhibition of aPL binding to IIa-8.0-biot-2x ELISA by peptide associated with streptavidin magnetic beads: dose dependently inhibited
[2]
  interaction with aPL produced by mice: able to interact also with aPL produced by mice
